Reference: patent US20060074046A1, “Oral administration of decitabine salt” (priority 2004, published 2006)
Converted amounts (≈) assume the structure as drawn. Counter-ions that a name gives are not always drawn. Like-named read-outs stand apart in the source and are kept apart here.

Key:
[1] = Hygroscopicity, weight gain in 1 week at relative humidity; format: physicochemical; details: solid state
[2] = 1 min
[3] = 0.05 M phosphate buffer; for Potency Found (%) At pH 2.5 / Potency Found (%) At pH 7.0: 0.5 mg/mL, ambient
physchem = details: water, thermodynamic from solid, Total Solubility

Hygroscopicity-% weight gain in 1 week ([1]; 56% RH)	Hygroscopicity-% weight gain in 1 week ([1]; 98% RH)	Total Solubility [2]	Potency Found (%) At pH 2.5 ([3]; t = 0.5 hr)	Potency Found (%) At pH 7.0 ([3]; t = 0.5 hr)	Potency Found (%) At pH 7.0 ([3]; t = 24 hr)	solubility at 1 min (physchem)	Potency Found (%) At pH 2.5 ([3]; t = 24 hr)	solubility at 1 min (physchem; decitabine or azacitidine free base equivalents)	SMILES	solution stability compared with the free base ([3]; pH 7.0 and 2.5)
1.74%	5.61%	14 mg/mL	73.62%	86.74%	79.43%	14 mg/mL (≈ 57.3 mM)	–	–	Nc1ncn([C@@H]2O[C@H](CO)[C@@H](O)[C@H]2O)c(=O)n1 [Compound 2, 5-azacytidine, reference compound]	–
6.05%	38.11%	205 mg/mL	64.56%	77.47%	65.79%	205 mg/mL	49.94%	137 mg/mL	Nc1ncn([C@@H]2O[C@H](CO)C(O)C2O)c(=O)n1 (some centres unmarked) [Compound 19, azacitidine mesylate]	slightly less than the free azacitidine base
